In patent publication US20260217983A1, “SULFONIUM SALT PHOTOINITIATORS AND METHODS OF LED CURING A COMPOSITION WITH SAID SULFONIUM SALT PHOTOINITIATORS” (ARKEMA FRANCE, priority 2022, published 2026):

Assays:
[1] = Colour index 'b' of formulations before and after polymerization; assay type: physicochemical; conditions: UViCure S105E, thin samples (20 μm), under air, 300 s irradiation
Method: The low yellowing characteristics can be measured by the Colour index ‘b’ value on cured films.
Formulations comprising the photoinitiators and neat UViCure S105E resin were prepared as described at example 2.

[2] = FTIR-ATR cure test of hybrid formulations (acrylate, epoxide conversion, 1100 cm^-1 peak growth); conditions: 405 nm; for Epoxide cure compared with Omnicat 550: 0.5% TPO-L, matched with control SC938/CPTX; for Epoxide cure compared with Omnicat 550 / acrylate cure with or without radical photoinitiator: high or low epoxide hybrid systems; for epoxide cure and total cationic cure compared with Omnicat 550 and SC992: in presence or absence of radical photoinitiator
Method: Matrixes: In a 1000 mL of metal can, formulation matrix was charged according to the percentage in Table 12. The 1000-1005 g mixture of each matrix sample was prepared and mixed by mechanical mixer for about 1 hour around 60° C. until the solution became clear. Formulations: In a white max 50 jar from FlackTek Inc., photoinitiator and propylene carbonate were loaded at first, mixed by hand with stainless steel spatula, placed in 60° C. oven for about 1 h, mixed again until it became clear. Then, formulation matrix was charged according to the percentage in one of Table 13 to 21. The […]-52.60 g mixture of each sample was prepared and mixed for 3 minutes at 3000 RPM in Speed Mixer from FleackTec Inc. Then, all jars were placed in 60° C. oven for about 2 h, taken out and immediately mixed for another 2 minutes until the solution became clear.
A Fourier Transform Infrared (FTIR) with an Attenuated Total Reflection (ATR) setup was used. All polymerization rate measurements were performed using Nicolet iS50 FT-IR Spectrometer from Thermo Scientific, equipped with a standard DLaTGS detector. A lamp holder for the ART platform of FTIR unit can be customized and printed from Arkema N3xtDimention® engineered resin N3D-TOUGH784 in order to ensure precisely fit of a 365 nm lamp Accucure ULM-2-365 or a 405 nm lamp Accucure ULM-2-405 from Digital Light Labs. On the bottom of this lamp holder, a dry air channel is built in to allow air uniformly blowing over sample surface, the gas flow rate can be controlled over a rotameter. The LED light was manually triggered by Ultraviolet illumination & Measurement System. LED light exposure can be programed by AccuCure software. For measurement, 25 μL of liquid sample was placed in the center of an ATR crystal. 3 mil of thin film was prepared by a customized coating applicator (3 mil WFM, G1046 from BYK). The LED lamp with holder was place on the top of ART platform. Then FTIR scan was initiated to collect liquid IR spectrum at first. Each IR spectrum of a specific exposure time at 10 mW/cm^2 of LED light were collected. Measurements of acrylate conversion were taken at the peak height under the reference peak around 1727 cm^−1; the acrylate peak of SR833S at approximately 1407 cm^−1, the epoxide peak of UviCure S105 at approximately 790 cm^−1, and the oxetane peak of UViCure S130 at approximately 970 cm^−1 were also measured. Since the ring opening of both epoxide and oxetane generated C—O—C bond, the growth of C—O—C IR peak height at ~1100 cm^−1 was monitored as well. The resulting of peak 1100 cm^−1 growth rate could be calculated to assess total cationic cure speed. Peak heights were determined using the same baseline where a baseline is chosen to be the two lowest points between 600 cm^−1 and 1800 cm^−1. The peak height under the peak and above the baseline was then determined. The integration limits for liquid and the cured sample are not identical but are similar, especially for the reference peak.
The ratios of the acrylate peak height, epoxide peak height, ring opening peak height from both epoxide and oxetane to the reference peak height were determined for both the liquid and the cured samples. Degree of cure or conversion or peak growth rate, expressed as percentage reacted acrylate or epoxide or ring opening of both epoxide and oxetane, was calculated from the equation below: […]
Where Rliq is the peak height ratio of the liquid sample and Rc is the peak height ratio of the LED cured sample. The resulting acrylate and epoxide conversions or C—O—C growth rates were collected and listed in Tables 13 to 21, plotted in FIG. 1 to 8 and FIG. 10.

[3] = Working-curve measurement (Ec, Dp) on 405 nm DLP printers; conditions: at lower concentration
Method: Working-curves were printed on the 405 nm~3 mW/cm^2 Flashforge Hunter DLP printer or on the 405 nm~12 mW/cm^2 B9 Core 550 DLP printer from B9Creation. Various energy dosages were irradiated in sections of the build area (without a build platform installed), resulting in individual squares or thin films being cured. The thickness of the individual thin films were measured with a low force digital caliper+comparator stand from Mitutoyo to determine the cure depths. A plot of the cure depths vs. the logarithm of energy dosages was used to determine the critical exposure (Ec, mJ/cm^2) and penetration depth (Dp, mils).

Structure (SMILES)	Colour index ‘b’ value After Polymerization ([1]; LED @365 nm (120 mW/cm^2))	Colour index ‘b’ value Before Polymerization ([1]; LED @365 nm (120 mW/cm^2))	Colour index ‘b’ value After Polymerization ([1]; LED @385 nm (160 mW/cm^2))	Colour index ‘b’ value Before Polymerization ([1]; LED @385 nm (160 mW/cm^2))	Epoxide cure compared with Omnicat 550 [2]	acrylate cure with or without radical photoinitiator [2]	epoxide cure and total cationic cure compared with Omnicat 550 and SC992 ([2]; hybrid systems)	acrylate cure in presence of BKL or XKm, or without any radical initiator ([2]; hybrid systems, like SC938/CPTX)	Dp and Ec compared with 4 (comp.) [3]
CCc1cc(CC)c2sc3ccc([S+](c4ccc(C)cc4)c4ccc(C(=O)c5ccccc5)cc4)cc3c(=O)c2c1 (stereo not shown) [Photoinitiator 4, (4-benzoylphenyl)(5,7-diethyl-9-oxo-9H-thioxanthen-2-yl)(4-methylphenyl)sulfonium Hexafluorophosphate]	6.05	6.33	6.09	6.28	better than that from Omnicat 550	high acrylate cure	better epoxide cure and total cationic cure than Omnicat 550 and SC992	could cure acrylate very well	
CCCOc1ccc(Cl)c2c(=O)c3cc(-[s+]4c5ccccc5c(=O)c5c(Cl)ccc(OCCC)c54)ccc3sc12 (stereo not shown) [Photoinitiator 5, 1-chloro-10-(8-chloro-9-oxo-5-propoxy-9H-thioxanthen-2-yl)-9-oxo-4-propoxy-9H-thioxanthen-10-ium Hexafluorophosphate]	4.92	5.02	4.91	5.35	better than that from Omnicat 550	high acrylate cure	better epoxide cure and total cationic cure than Omnicat 550 and SC992		lower Op and higher Ec than 4 (comp.)
CC(C)c1ccc2sc3ccc(-[s+]4c5ccccc5c(=O)c5cc(C(C)C)ccc54)cc3c(=O)c2c1 (stereo not shown) [Photoinitiator 1, 9-oxo-10-[9-oxo-7-(propan-2-yl)-9H-thioxanthen-2-yl]-2-(propan-2-yl)-9H-thioxanthen-10-ium hexafluorophosphate]	8.81	6.38	8.71	6.13	better than that from Omnicat 550				
Cc1ccc([S+](c2ccc(C(=O)c3ccccc3)cc2)c2ccc3sc4ccc(C(C)C)cc4c(=O)c3c2)cc1 (stereo not shown) [Photoinitiator 2, (4-benzoylphenyl)(4-methylphenyl)[9-oxo-7-(propan-2-yl)-9H-thioxanthen-2-yl]sulfonium Hexafluorophosphate]	6.31	6.48	6.26	6.49					
